The text below walks through data of patent US20060205673A1, “2-Amino-3-hydroxy-4-tert-leucyl-amino-5-phenyl-pentanoic acid amide derivatives” (priority 2000, published 2006).

The structures appear in SMILES notation.

This test concerns the target T1, purified human placenta 20S proteasome (Homo sapiens, UniProt P28074).
T1 construct: 1 μl purified human placenta 20S proteasome; tissue Diabetes Forschungsinstitut, Düsseldorf, Germany; host or cells: human placenta
Briefly: Inhibition of the chymotrypsin-like activity of the 20S proteasome (Suc-LLVY-AMC hydrolysis). Format: biochemical. The settings on record: Suc-LLVY-AMC substrate, 60 min preincubation at room temperature, Table 1. The source says:
It is based on the hydrolysis of the fluorogenic peptide Suc-LLVY-AMC (Succinyl-leucine-leucine-valine-tyrosine-7-amino-4-methyl-coumarin), which is cleaved exclusively at the Y-AMC bond by the 20S proteasome. Hydrolysis of this peptide is accompanied by an increase in fluorescence intensity [λex (excitation wavelength): 355 nm; λem (emission wavelength): 460 nm] due to release of the internally quenched […] fluorescence that accompanies diffusion apart of the hydrolysis product Suc-LLVY.
2 μl of a 1 mM solution of a test compound in DMSO (dimethylsulfoxide, 20 μM final concentration in the well) are preincubated for 60 min at room temperature in black 96-well microtiter plates together with a mixture of 1 μl purified human placenta 20S proteasome (Diabetes Forschungsinstitut, Düsseldorf, Germany; about 100 ng proteasome, depending on the proteasome preparation) and 47 μl buffer-Ca [5 mM CaCl2, 20 mM Tris/HCl (Tris-(hydroxymethyl)-amino-methane hydrochloride) pH 8.0]. 3 μl of a 2.67 mM solution of Suc-LLVY-AMC (Bachem, Switzerland) in DMSO (80 μM final concentration in the well) and 47 μl buffer-Ca are mixed and added. The resulting mixture is incubated for 3-24 h at 37° C. If desired, proteolysis of the substrate can be stopped by addition of 50 μl stop solution (100 mM monochloroacetic acid, 130 mM NaOH, 100 mM acetic acid, pH=4.3). The fluorescence is monitored with a FLUOROSKAN ASCENT™ microtiter plate reader.
To each measure series two control experiments have to be carried out:
1.) 0% value: 2 μl DMSO are used in the above described assay instead of 2 μl of a 1 mM solution of a test compound in DMSO and 48 μl buffer-Ca instead of a mixture of 47 μl buffer-Ca and 1 μl purified proteasome.
2.) 100% value: in the above described assay 2 μl DMSO are used instead of 2 μl of a 1 mM solution of the test compound in DMSO.
The IC50 value is defined as that concentration of a compound at which the remaining activity is 50%.
For orientation: IC50 means the concentration that inhibits the measured activity by half. Low values mean greater potency, high ones weaker potency. The compound `COc1ccc(CNC(=O)[C@@H](NC(=O)[C@H](NCc2ccc(N(C)C)cc2)[C@H](O)[C@H](Cc2ccccc2)NC(=O)[C@@H](NC(=O)OCc2ccccc2)C(C)(C)C)C(C)C)c(O)c1` [Example 2, ((S)-1-{(1S,2R,3R)-1-Benzyl-3-(4-dimethylamino-benzylamino)-2-hydroxy-3-[(S)-1-(2-hydroxy-4-methoxy-benzylcarbamoyl)-2-methyl-propylcarbamoyl]-propylcarbamoyl}-2,2-dimethyl-propyl)-carbamic acid benzyl ester] showed a half-inhibitory concentration (IC50) of 600 nM. On to `COc1ccc(CNC(=O)[C@@H](NC(=O)[C@H](NCc2ccc(OC)c(OC)c2OC)[C@H](O)[C@H](Cc2ccccc2)NC(=O)[C@@H](NC(=O)OCc2ccccc2)C(C)(C)C)C(C)C)c(O)c1` [Example 7, {(S)-1-[(1S,2R,3R)-1-Benzyl-2-hydroxy-3-[(S)-1-(2-hydroxy-4-methoxy-benzylcarbamoyl)-2-methyl-propylcarbamoyl]-3-(2,3,4-trimethoxy-benzylamino) -propylcarbamoyl]-2,2-dimethyl-propyl}-carbamic acid benzyl ester], for which 100 nM corresponded to half-maximal inhibition (IC50). The value for `COc1ccc(CNC(=O)[C@@H](NC(=O)[C@H](NCc2cc(OC)c(OC)cc2OC)[C@H](O)[C@H](Cc2ccccc2)NC(=O)[C@@H](NC(=O)OCc2ccccc2)C(C)(C)C)C(C)C)c(O)c1` [Example 10, {(S)-1-[(1S,2R,3R)-1-Benzyl-2-hydroxy-3-[(S)-1-(2-hydroxy-4-methoxy-benzylcarbamoyl)-2-methyl-propylcarbamoyl]-3-(2,4,5-trimethoxy-benzylamino)-propylcarbamoyl]-2,2-dimethyl-propyl}-carbamic acid benzyl ester] was 200 nM; that for `COc1ccc(CNC(=O)[C@@H](NC(=O)[C@H](NCc2cc(OC)c(OC)c(OC)c2)[C@H](O)[C@H](Cc2ccccc2)NC(=O)[C@@H](NC(=O)OCc2ccccc2)C(C)(C)C)C(C)C)c(O)c1` [Example 6, {(S)-1-[(1S,2R,3R)-1-Benzyl-2-hydroxy-3-[(S)-1-(2-hydroxy-4-methoxy-benzylcarbamoyl)-2-methyl-propylcarbamoyl]-3-(3,4,5-trimethoxy-benzylamino)-propylcarbamoyl]-2,2-dimethyl-propyl}-carbamic acid benzyl ester] was 50 nM; that for `COc1ccc(CN[C@@H](C(=O)N[C@H](C(=O)NCc2cc(Br)ccc2O)C(C)C)[C@H](O)[C@H](Cc2ccccc2)NC(=O)[C@@H](NC(=O)OCc2ccccc2)C(C)(C)C)cc1` [Example 3, {(S)-1-[(1S,2R,3R)-1-Benzyl-3-[(S)-1-(5-bromo-2-hydroxy-benzyl-carbamoyl)-2-methyl-propylcarbamoyl]-2-hydroxy-3-(4-methoxy-benzylamino)-propylcarbamoyl]-2,2-dimethyl-propyl}-carbamic acid benzyl ester] was 800 nM. For `COc1ccc(CNC(=O)[C@@H](NC(=O)[C@H](NCc2ccc(N(C)C)cc2)[C@H](O)[C@H](Cc2ccccc2)NC(=O)[C@@H](NC(=O)Cc2cccc3ccccc23)C(C)(C)C)C(C)C)c(O)c1` [Example 16, (2R,3R,4S)-2-(4-Dimethylamino-benzylamino)-4-[(S)-3,3-dimethyl-2-(2-naphthalen-1-yl-acetylamino)-butyrylamino]-3-hydroxy-5-phenyl-pentanoic acid [(S)-1-(2-hydroxy-4-methoxy-benzylcarbamoyl)-2-methyl-propyl]-amide] the value was 160 nM; for `COc1ccc(CNC(=O)[C@@H](NC(=O)[C@H](NCc2ccc(OC)c(OC)c2)[C@H](O)[C@H](Cc2ccccc2)NC(=O)[C@@H](NC(=O)OCc2ccccc2)C(C)(C)C)C(C)C)c(O)c1` [Example 8, ((S)-1-{(1S,2R,3R)-1-Benzyl-3-(3,4-dimethoxy-benzylamino)-2-hydroxy-3-[(S)-1-(2-hydroxy-4-methoxy-benzylcarbamoyl)-2-methyl-propylcarbamoyl]-propylcarbamoyl}-2,2-dimethyl-propyl)-carbamic acid benzyl ester], 150 nM. Turning to `COc1ccc(CNC(=O)[C@@H](NC(=O)[C@H](NCc2cc(OC)c(OC)c(OC)c2)[C@H](O)[C@H](Cc2ccccc2)NC(=O)[C@@H](NC(=O)OC(C)(C)C)C(C)(C)C)C(C)C)c(O)c1` [Example 11, {(S)-1-[(1S,2R,3R)-1-Benzyl-2-hydroxy-3-[(S)-1-(2-hydroxy-4-methoxy-benzylcarbamoyl)-2-methyl-propylcarbamoyl]-3-(3,4,5-trimethoxy-benzylamino)-propylcarbamoyl]-2,2-dimethyl-propyl}-carbamic acid tert-butyl ester], the IC50 was found to be 1040 nM. This IC50 is about 6.9-fold higher than that of the compound before. The value for `COc1ccc(CNC(=O)[C@@H](NC(=O)[C@H](NCc2cc(OC)c(OC)c(OC)c2)[C@H](O)[C@H](Cc2ccccc2)NC(=O)[C@@H](NC(=O)Cc2cccc3ccccc23)C(C)(C)C)C(C)C)c(O)c1` [Example 12, (2R,3R,4S)-4-[(S)-3,3-Dimethyl-2-(2-naphthalen-1-yl-acetylamino)-butyrylamino]-3-hydroxy-5-phenyl-2-(3,4,5-trimethoxy-benzylamino)-pentanoic acid [(S)-1-(2-hydroxy-4-methoxy-benzylcarbamoyl)-2-methyl-propyl]-amide] was 11 nM.
